# Source: patent US20110243846A1, “BENZOTHIAZOLE AMIDES FOR DETECTION OF AMYLOID BETA” (priority 2008, published 2011)
# Tested on: Aβ plaques in cortex sections of Alzheimer's disease patients
# Test: Autoradiographical analysis of binding to human brain sections
# Conditions: F-18 labelled compound; for Autoradiographical analysis of binding to cryosections from cortex: cryosections from cortex of AD patients vs controls without Aβ plaques (HC/FTD)
# Text: Fresh frozen as well as paraffin embedded sections of the frontal lobe from Alzheimer's dementia patients, frontotemporal dementia patients and age matched controls were used for the study. Frozen sections, sliced at 18 μm thickness on a cryostate (Leica, Germany) and paraffin sections, sliced on a sliding microtom (Leica) at a thickness of 6 μm, were mounted onto glass slides (Superfrost Plus, Fa.Menzel, Braunschweig Germany). Frozen sections were allowed to adhere to the slides for several nights at −20° C. The paraffin sections were deparaffinized using routine histological methods. For binding studies sections were incubated with the F-18 labeled test compound at 10 Bq/μl diluted in 25 mM Hepes buffer, pH 7.4, 0.1% (BSA) (200-300 μl/slide) for 1.5 hour at room temperature in a humidified chamber. For blocking experiments a 1000-fold access of the unlabeled test substance was added to the incubation mixture. After hybridization, sections were washed four times with Hepes buffer, 0.1% BSA (or alternatively two times with 40% ethanol) and finally dipped two times into dest. water for 10 sec. The air-dried sections were exposed to imaging plates and signals were detected by a phosphoimager device (Fuji BAS5000).
Compound,Autoradiographical analysis of binding to cryosections from cortex,Autoradiographical analysis of binding to paraffine-sections from cortex (paraffine-sections from cortex of AD patients vs controls without Aβ plaques (HC/FTD))
"COc1ccc2nc(NC(=O)c3ccc([18F])cc3)sc2c1 [compound 1f, 4-(^18F)fluoro-N-(6-methoxy-1,3-benzothiazol-2-yl)benzamide]",Specific binding in plaque-rich regions of AD samples,–
"COc1ccc2nc(NC(=O)c3cc([18F])ccn3)sc2c1 [compound 2c, 4-(^18F)fluoro-N-(6-methoxy-1,3-benzothiazol-2-yl)pyridine-2-carboxamide]",Specific binding in plaque-rich regions of AD samples,–
"COc1ccc2nc(NC(=O)c3cccc([18F])n3)sc2c1 [compound 3c, 6-[^18F]-fluoro-N-(6-methoxy-1,3-benzothiazol-2-yl)pyridine-2-carboxamide]",–,Specific binding in plaque-rich regions of AD samples
